Measurements taken from patent US4370266A, “Mycoplanecin derivatives and their preparation” (Sankyo Company, Limited, priority 1980, dated 1983).
In brackets after ≈: the same amount, converted by molar mass. Like-named read-outs stand apart in the source and are kept apart here. Numbered stars: 1 amine (or outer) side, 2 acyl side, 3 side chain; on linkers, the order of the positions; unused ones are H or OH. Bridge positions count the residues as written; N and C are the ends. Square brackets hold non-standard residues; d marks the D form. Peptide text beside a SMILES is read from it. * marks the point of attachment. ξ: configuration not given here. X1 = CCC1CC(C(=O)[*:2])N([*:1])C1; Butanoyl(2-oxo) = CCC(=O)C(=O)*; NMeAhp(2) = CCCCC[CH](NC)C(=O)O; ξPro(4ξ-Me) = CC1CNC(C(=O)O)C1; NMeT = CN[CH](C(=O)O)[CH](C)O; NMeL = CN[CH](CC(C)C)C(=O)O; hLeu = CC(C)CC[CH](N)C(=O)O; NMeV = CN[CH](C(=O)O)C(C)C; X2 = CCC(O)C(=O)*

Legend:
[1] = system: Mycobacterium smegmatis ATCC 607; test: Minimal inhibitory concentration (MIC), Mycobacterium smegmatis ATCC 607; conditions: Mycolicibacterium smegmatis, ATCC607, 168 h
[2] = system: microorganisms of the genus Mycobacterium; conditions: earlier applications on Mycoplanecin A; cited from earlier work
Candida albicans Yu 1200 = test: MIC, Candida albicans Yu 1200; assay type: cell-based
[3] = system: Aspergillus oryzae SANK 11262; test: MIC, Aspergillus oryzae SANK 11262; assay type: cell-based
[4] = system: Penicillium chrysogenum SANK 12768; test: MIC, Penicillium chrysogenum SANK 12768; assay type: cell-based
[5] = system: Trichophyton mentagrophytes SANK 22374; test: MIC, Trichophyton mentagrophytes SANK 22374; assay type: cell-based
[6] = system: Piricularia oryzae SANK 16975; test: microbe, parasite or virus in culture; assay type: cell-based; conditions: 48 h
[7] = system: Xanthomonas oryzae SANK 70274; test: microbe, parasite or virus in culture; assay type: cell-based; conditions: SANK70274, 72 h
Solubility = conditions: for Solubility: soluble in: organic solvents; for Solubility: insoluble in: water and, where named, other solvents
Micrococcus luteus = test: MIC, Micrococcus luteus; conditions: 24 h
Proteus vulgaris OX19 = test: MIC, Proteus vulgaris OX19; conditions: OX19, 24 h
Proteus mirabilis 1331 = test: MIC, Proteus mirabilis 1331; conditions: Proteus mirabilis, 1331, 24 h
[8] = system: Bacillus subtilis PCI 219; test: MIC, Bacillus subtilis PCI 219; conditions: PCI219, 24 h
[9] = system: Escherichia coli NIHJ JC-2; test: MIC, Escherichia coli NIHJ JC-2; conditions: NIHJJC2, 24 h
[10] = system: Klebsiella pneumoniae PCI 602; test: MIC, Klebsiella pneumoniae PCI 602; conditions: PCI602, 24 h
[11] = system: Staphylococcus aureus 209P JC-1; test: MIC, Staphylococcus aureus 209P JC-1; conditions: 24 h
[12] = system: Pseudomonas aeruginosa SANK 73860; test: MIC, Pseudomonas aeruginosa SANK 73860; conditions: SANK73860, 24 h

SMILES: CCCCCC1C(=O)NCC(=O)OC(C)C(N(C)C(=O)C2CC(CC)CN2C(=O)C(C(C)C)N(C)C(=O)C(O)CC)C(=O)NC(CC(C)C)C(=O)N2CC(C)CC2C(=O)NC(CCC(C)C)C(=O)N(C)C(C(C)C)C(=O)N2CCCC2C(=O)N1C (stereo not drawn) [Compound (IIIa)] (X2-[NMeV][X1][NMeT]L[ξPro(4ξ-Me)][hLeu][NMeV]P[NMeAhp(2)]G; ester 3-C; configuration not given here)
- MIC [1]: 0.05 µg/mL (≈ 0.0417 µM)

SMILES: CCCCCC1C(=O)NCC(=O)OC(C)C(N(C)C(=O)C2CC(CC)CN2)C(=O)NC(CC(C)C)C(=O)N2CC(C)CC2C(=O)NC(CCC(C)C)C(=O)N(C)C(C(C)C)C(=O)N2CCCC2C(=O)N1C (stereo not drawn) [Compound (IIIb)] (H-[X1][NMeT]L[ξPro(4ξ-Me)][hLeu][NMeV]P[NMeAhp(2)]G; ester 2-C; configuration not given here)
- MIC [1]: 6.25 µg/mL (≈ 6.25 µM)

SMILES: CCC(O)C(=O)N(C)C(C(=O)N1CC(C)CC1C(=O)N(C)C1C(=O)NC(CC(C)C)C(=O)N2CC(C)CC2C(=O)NC(CCC(C)C)C(=O)N(C)C(C(C)C)C(=O)N2CCCC2C(=O)N(C)C(CC(C)C)C(=O)NCC(=O)OC1C)C(C)C (stereo not drawn) [Compound (IIa)]
- MIC [1]: 0.05 µg/mL (≈ 0.0427 µM)

SMILES: CC(C)CCC1NC(=O)C2CC(C)CN2C(=O)C(CC(C)C)NC(=O)C(N(C)C(=O)C2CC(C)CN2)C(C)OC(=O)CNC(=O)C(CC(C)C)N(C)C(=O)C2CCCN2C(=O)C(C(C)C)N(C)C1=O (stereo not drawn) [Compound (IIb)]
- MIC [1]: 6.25 µg/mL (≈ 6.43 µM)

SMILES: CCC(=O)C(=O)N(C)C(C(=O)N1CC(CC)CC1C(=O)N(C)C1C(=O)NC(CC(C)C)C(=O)N2CC(C)CC2C(=O)NC(CCC(C)C)C(=O)N(C)C(C(C)C)C(=O)N2CCCC2C(=O)N(C)C(CC(C)C)C(=O)NCC(=O)OC1C)C(C)C (stereo not drawn) [Mycoplanecin A] ({Butanoyl(2-oxo)}-[NMeV][X1][NMeT]L[ξPro(4ξ-Me)][hLeu][NMeV]P[NMeL]G; ester 3-C; configuration not given here)
- antibacterial activity [2]: antibacterial activity, especially against microorganisms of the genus Mycobacterium

SMILES: CCC(=O)C(=O)N(C)C(C(=O)N1CC(C)CC1C(=O)N(C)C1C(=O)NC(CC(C)C)C(=O)N2CC(C)CC2C(=O)NC(CCC(C)C)C(=O)N(C)C(C(C)C)C(=O)N2CCCC2C(=O)N(C)C(CC(C)C)C(=O)NCC(=O)OC1C)C(C)C (stereo not drawn) [Mycoplanecin B]
- MIC (Candida albicans Yu 1200; YU1200, 48 h): > 400 µg/mL
- MIC ([3]; SANK11262, 48 h): > 400 µg/mL
- MIC ([4]; SANK12768, 48 h): > 400 µg/mL
- MIC ([5]; SANK22374, 48 h): > 400 µg/mL
- MIC [6]: > 400 µg/mL
- MIC ([7]; read-out: MIC): 12.5 µg/mL (≈ 10.7 µM)
- Solubility: soluble in (Solubility): Soluble in methanol, ethanol, ethyl acetate, acetone and chloroform
- Solubility: insoluble in (Solubility): Insoluble in water
- MIC (Micrococcus luteus): 0.0125 µg/mL (≈ 0.0107 µM)
- MIC (Proteus vulgaris OX19): > 400 µg/mL
- MIC (Proteus mirabilis 1331): > 400 µg/mL
- MIC [8]: > 400 µg/mL
- MIC [9]: > 400 µg/mL
- MIC [10]: > 400 µg/mL
- MIC [11]: > 400 µg/mL
- MIC [12]: > 400 µg/mL
- MIC [1]: 0.05 µg/mL (≈ 0.0428 µM)

SMILES: CCCCCC1C(=O)NCC(=O)OC(C)C(N(C)C(=O)C2CC(CC)CN2C(=O)C(C(C)C)N(C)C(=O)C(=O)CC)C(=O)NC(CC(C)C)C(=O)N2CC(C)CC2C(=O)NC(CCC(C)C)C(=O)N(C)C(C(C)C)C(=O)N2CCCC2C(=O)N1C (stereo not drawn) [Mycoplanecin C] ({Butanoyl(2-oxo)}-[NMeV][X1][NMeT]L[ξPro(4ξ-Me)][hLeu][NMeV]P[NMeAhp(2)]G; ester 3-C; configuration not given here)
- MIC (Candida albicans Yu 1200; YU1200, medium S: 48 hours at 26° C. in Sabouraud's agar, read-out: MIC): > 400 µg/mL
- MIC ([3]; SANK11262, medium S: 48 hours at 26° C. in Sabouraud's agar, read-out: MIC): > 400 µg/mL
- MIC ([4]; SANK12768, medium S: 48 hours at 26° C. in Sabouraud's agar, read-out: MIC): > 400 µg/mL
- MIC ([5]; SANK22374, medium S: 48 hours at 26° C. in Sabouraud's agar, read-out: MIC): > 400 µg/mL
- MIC [6]: > 400 µg/mL
- MIC [7]: 12.5 µg/mL (≈ 10.4 µM)
- Solubility: soluble in (Solubility): Soluble in methanol, ethanol, ethyl acetate, acetone and chloroform
- Solubility: insoluble in (Solubility): Insoluble in water
- MIC (Micrococcus luteus): 0.0125 µg/mL (≈ 0.0104 µM)
- MIC (Proteus vulgaris OX19): > 400 µg/mL
- MIC (Proteus mirabilis 1331): > 400 µg/mL
- MIC [8]: > 400 µg/mL
- MIC [9]: > 400 µg/mL
- MIC [10]: > 400 µg/mL
- MIC [11]: > 400 µg/mL
- MIC [12]: > 400 µg/mL
- MIC [1]: 0.05 µg/mL (≈ 0.0418 µM)
